Laboratory results published in ChEMBL document CHEMBL3045814, “Antifungal activity of Hinokitiol-related compounds on wood-rotting fungi and their insecticidal activities” (2000).
In brackets after ≈: the same amount, converted by molar mass. Activity calls are given as the source filed them. No cut-off for these calls is given here.

What was measured:
Type in all cases: functional
Coptotermes formosanus [1] = assay: Insecticidal activity against Coptotermes formosanus assessed as mortality after 24 to 48 hr
Fomitopsis dickinsii = assay: Antifungal activity against Daedalea dickinsii IFO-4979 assessed as growth inhibition after 7 days by agar dilution method; details: for MIC: IFO-4979, 168 h
Tyrophagus putrescentiae [2] = assay: Insecticidal activity against Tyrophagus putrescentiae assessed as mortality after 24 hr by clip method
Schizophyllum commune = assay: Antifungal activity against Schizophyllum commune IFO-4928 assessed as growth inhibition after 7 days by agar dilution method; details: for MIC: IFO-4928, 168 h
Trametes coccinea = assay: Antifungal activity against Pycnoporus coccineus IFO-4924 assessed as growth inhibition after 7 days by agar dilution method; details: for MIC: IFO-4924, 168 h
Trametes versicolor = assay: Antifungal activity against Trametes versicolor IFO-4940 assessed as growth inhibition after 7 days by agar dilution method; details: for MIC: IFO-4940, 168 h
Lenzites betulinus = assay: Antifungal activity against Lenzites betulinus IFO-4964 assessed as growth inhibition after 7 days by agar dilution method; details: for MIC: IFO-4964, 168 h
Tyrophagus putrescentiae [3] = assay: Insecticidal activity against Tyrophagus putrescentiae assessed as mortality at 1 g/m2 after 24 hr by clip method relative to control
Tyrophagus putrescentiae [4] = assay: Insecticidal activity against Tyrophagus putrescentiae assessed as mortality at 0.05 g/m2 after 24 hr by clip method relative to control
Tyrophagus putrescentiae [5] = assay: Insecticidal activity against Tyrophagus putrescentiae assessed as mortality at 0.5 g/m2 after 24 hr by clip method relative to control
Coptotermes formosanus [6] = assay: Insecticidal activity against Coptotermes formosanus assessed as mortality at 1 g/m2 after 48 hr relative to control
Coptotermes formosanus [7] = assay: Insecticidal activity against Coptotermes formosanus assessed as mortality at 0.1 g/m2 after 24 hr relative to control
Coptotermes formosanus [8] = assay: Insecticidal activity against Coptotermes formosanus assessed as mortality at 0.01 g/m2 after 24 hr relative to control
Coptotermes formosanus [9] = assay: Insecticidal activity against Coptotermes formosanus assessed as mortality at 1 g/m2 after 24 hr relative to control
Coptotermes formosanus [10] = assay: Insecticidal activity against Coptotermes formosanus assessed as mortality at 0.05 g/m2 after 48 hr relative to control
Tyrophagus putrescentiae [11] = assay: Insecticidal activity against Tyrophagus putrescentiae assessed as mortality at 0.2 g/m2 after 24 hr by clip method relative to control
Tyrophagus putrescentiae [12] = assay: Insecticidal activity against Tyrophagus putrescentiae assessed as mortality at 0.02 g/m2 after 24 hr by clip method relative to control
Coptotermes formosanus [13] = assay: Insecticidal activity against Coptotermes formosanus assessed as mortality at 0.05 g/m2 after 24 hr relative to control
Coptotermes formosanus [14] = assay: Insecticidal activity against Coptotermes formosanus assessed as mortality at 0.02 g/m2 after 48 hr relative to control
Coptotermes formosanus [15] = assay: Insecticidal activity against Coptotermes formosanus assessed as mortality at 0.01 g/m2 after 48 hr relative to control
Coptotermes formosanus [16] = assay: Insecticidal activity against Coptotermes formosanus assessed as mortality at 0.2 g/m2 after 24 hr relative to control
Tyrophagus putrescentiae [17] = assay: Insecticidal activity against Tyrophagus putrescentiae assessed as mortality at 0.01 g/m2 after 24 hr by clip method relative to control
Tyrophagus putrescentiae [18] = assay: Insecticidal activity against Tyrophagus putrescentiae assessed as mortality at 0.1 g/m2 after 24 hr by clip method relative to control
Coptotermes formosanus [19] = assay: Insecticidal activity against Coptotermes formosanus assessed as mortality at 0.02 g/m2 after 24 hr relative to control
Coptotermes formosanus [20] = assay: Insecticidal activity against Coptotermes formosanus assessed as mortality at 0.1 g/m2 after 48 hr relative to control
Coptotermes formosanus [21] = assay: Insecticidal activity against Coptotermes formosanus assessed as mortality at 0.2 g/m2 after 48 hr relative to control
Coptotermes formosanus [22] = assay: Insecticidal activity against Coptotermes formosanus assessed as mortality at 0.00025 g/m2 after 48 hr relative to control
Coptotermes formosanus [23] = assay: Insecticidal activity against Coptotermes formosanus assessed as mortality at 0.00010 g/m2 after 48 hr relative to control
Coptotermes formosanus [24] = assay: Insecticidal activity against Coptotermes formosanus assessed as mortality at 0.00005 g/m2 after 48 hr relative to control
Coptotermes formosanus [25] = assay: Insecticidal activity against Coptotermes formosanus assessed as mortality at 0.00010 g/m2 after 24 hr relative to control
Coptotermes formosanus [26] = assay: Insecticidal activity against Coptotermes formosanus assessed as mortality at 0.00050 g/m2 after 24 hr relative to control
Coptotermes formosanus [27] = assay: Insecticidal activity against Coptotermes formosanus assessed as mortality at 0.00050 g/m2 after 48 hr relative to control
Coptotermes formosanus [28] = assay: Insecticidal activity against Coptotermes formosanus assessed as mortality at 0.00005 g/m2 after 24 hr relative to control
Coptotermes formosanus [29] = assay: Insecticidal activity against Coptotermes formosanus assessed as mortality at 0.00025 g/m2 after 24 hr relative to control
Coptotermes formosanus [30] = assay: Insecticidal activity against Coptotermes formosanus assessed as mortality at 0.00001 g/m2 after 48 hr relative to control
Coptotermes formosanus [31] = assay: Insecticidal activity against Coptotermes formosanus assessed as mortality at 0.00001 g/m2 after 24 hr relative to control

CC(=O)Oc1cc(C(C)C)cccc1=O
Activity (Coptotermes formosanus [1]): inactive
growth inhibition (GI) (Fomitopsis dickinsii): inactive
Activity (Tyrophagus putrescentiae [2]): inactive
growth inhibition (GI) (Schizophyllum commune): inactive
growth inhibition (GI) (Trametes coccinea): inactive
growth inhibition (GI) (Trametes versicolor): inactive
growth inhibition (GI) (Lenzites betulinus): inactive

C[C@@H]1[C@H](O)[C@@H](C)/C=C/C=C/C=C/C=C/C=C/C=C/C=C/[C@H](O[C@@H]2O[C@H](C)[C@@H](O)[C@H](N)[C@@H]2O)C[C@@H]2O[C@](O)(C[C@@H](O)C[C@@H](O)[C@H](O)CC[C@@H](O)C[C@@H](O)CC(=O)O[C@H]1C)C[C@H](O)[C@H]2C(=O)O [AMPHOTERICIN B]
MIC (Fomitopsis dickinsii): 0.39 mg/L (≈ 0.422 µM)
MIC (Schizophyllum commune): 0.39 mg/L (≈ 0.422 µM)
MIC (Trametes coccinea): 0.78 mg/L (≈ 0.844 µM)
MIC (Trametes versicolor): 0.39 mg/L (≈ 0.422 µM)
MIC (Lenzites betulinus): 0.39 mg/L (≈ 0.422 µM)

C=C(C)c1cccc(=O)c(O)c1 [BETA-DOLABRIN]
LC50 (Coptotermes formosanus [1]): 0.05 g/m2
mortality (Tyrophagus putrescentiae [3]): 100%
MIC (Fomitopsis dickinsii): 0.2 mg/L (≈ 1.23 µM)
mortality (Tyrophagus putrescentiae [4]): 91%
mortality (Tyrophagus putrescentiae [5]): 100%
mortality (Coptotermes formosanus [6]): 100%
mortality (Coptotermes formosanus [7]): 40%
mortality (Coptotermes formosanus [8]): 0%
LC50 (Tyrophagus putrescentiae [2]): 0.02 g/m2
mortality (Coptotermes formosanus [9]): 100%
mortality (Coptotermes formosanus [10]): 11%
mortality (Tyrophagus putrescentiae [11]): 100%
MIC (Schizophyllum commune): 12.5 mg/L (≈ 77.1 µM)
mortality (Tyrophagus putrescentiae [12]): 31%
mortality (Coptotermes formosanus [13]): 0%
MIC (Trametes coccinea): 25 mg/L (≈ 154 µM)
mortality (Coptotermes formosanus [14]): 0%
mortality (Coptotermes formosanus [15]): 0%
mortality (Coptotermes formosanus [16]): 100%
MIC (Trametes versicolor): 6.25 mg/L (≈ 38.5 µM)
mortality (Tyrophagus putrescentiae [17]): 0%
mortality (Tyrophagus putrescentiae [18]): 90%
mortality (Coptotermes formosanus [19]): 0%
MIC (Lenzites betulinus): 12.5 mg/L (≈ 77.1 µM)
mortality (Coptotermes formosanus [20]): 95%
mortality (Coptotermes formosanus [21]): 100%

CCOP(=S)(OCC)Oc1nc(Cl)c(Cl)cc1Cl [CHLORPYRIFOS]
LC50 (Coptotermes formosanus [1]): 0.00016 g/m2
mortality (Coptotermes formosanus [22]): 100%
mortality (Coptotermes formosanus [23]): 75%
mortality (Coptotermes formosanus [24]): 40%
mortality (Coptotermes formosanus [25]): 25%
mortality (Coptotermes formosanus [26]): 100%
mortality (Coptotermes formosanus [27]): 100%
mortality (Coptotermes formosanus [28]): 10%
mortality (Coptotermes formosanus [29]): 60%
mortality (Coptotermes formosanus [30]): 0%
mortality (Coptotermes formosanus [31]): 0%

CCN(CC)C(=O)c1cccc(C)c1 [DIETHYLTOLUAMIDE]
mortality (Tyrophagus putrescentiae [3]): 67.1%
mortality (Tyrophagus putrescentiae [4]): 0%
mortality (Tyrophagus putrescentiae [5]): 18.9%
LC50 (Tyrophagus putrescentiae [2]): 0.79 g/m2
mortality (Tyrophagus putrescentiae [11]): 4.5%
mortality (Tyrophagus putrescentiae [12]): 0%
mortality (Tyrophagus putrescentiae [17]): 0%
mortality (Tyrophagus putrescentiae [18]): 0%

CC(C)c1ccc(O)c(=O)cc1 [GAMMA-THUJAPLICIN]
LC50 (Coptotermes formosanus [1]): 0.05 g/m2
mortality (Tyrophagus putrescentiae [3]): 100%
MIC (Fomitopsis dickinsii): 0.2 mg/L (≈ 1.22 µM)
mortality (Tyrophagus putrescentiae [4]): 66%
mortality (Tyrophagus putrescentiae [5]): 100%
mortality (Coptotermes formosanus [6]): 100%
mortality (Coptotermes formosanus [7]): 20%
mortality (Coptotermes formosanus [8]): 0%
LC50 (Tyrophagus putrescentiae [2]): 0.02 g/m2
mortality (Coptotermes formosanus [9]): 100%
mortality (Coptotermes formosanus [10]): 32%
mortality (Tyrophagus putrescentiae [11]): 100%
MIC (Schizophyllum commune): 12.5 mg/L (≈ 76.1 µM)
mortality (Tyrophagus putrescentiae [12]): 51%
mortality (Coptotermes formosanus [13]): 10%
MIC (Trametes coccinea): 25 mg/L (≈ 152 µM)
mortality (Coptotermes formosanus [14]): 11%
mortality (Coptotermes formosanus [15]): 5%
mortality (Coptotermes formosanus [16]): 100%
MIC (Trametes versicolor): 6.25 mg/L (≈ 38.1 µM)
mortality (Tyrophagus putrescentiae [17]): 0%
mortality (Tyrophagus putrescentiae [18]): 84%
mortality (Coptotermes formosanus [19]): 0%
MIC (Lenzites betulinus): 12.5 mg/L (≈ 76.1 µM)
mortality (Coptotermes formosanus [20]): 100%
mortality (Coptotermes formosanus [21]): 100%

CC(C)c1cccc(=O)c(O)c1 [HINOKITIOL]
LC50 (Coptotermes formosanus [1]): 0.07 g/m2
mortality (Tyrophagus putrescentiae [3]): 100%
MIC (Fomitopsis dickinsii): 0.2 mg/L (≈ 1.22 µM)
mortality (Tyrophagus putrescentiae [4]): 0%
mortality (Tyrophagus putrescentiae [5]): 91.3%
mortality (Coptotermes formosanus [6]): 100%
mortality (Coptotermes formosanus [7]): 50%
mortality (Coptotermes formosanus [8]): 0%
LC50 (Tyrophagus putrescentiae [2]): 0.246 g/m2
mortality (Coptotermes formosanus [9]): 100%
mortality (Coptotermes formosanus [10]): 50%
mortality (Tyrophagus putrescentiae [11]): 33.6%
MIC (Schizophyllum commune): 12.5 mg/L (≈ 76.1 µM)
mortality (Tyrophagus putrescentiae [12]): 0%
mortality (Coptotermes formosanus [13]): 40%
MIC (Trametes coccinea): 12.5 mg/L (≈ 76.1 µM)
mortality (Coptotermes formosanus [14]): 20%
mortality (Coptotermes formosanus [15]): 0%
mortality (Coptotermes formosanus [16]): 100%
MIC (Trametes versicolor): 12.5 mg/L (≈ 76.1 µM)
mortality (Tyrophagus putrescentiae [17]): 0%
mortality (Tyrophagus putrescentiae [18]): 11.9%
mortality (Coptotermes formosanus [19]): 10%
MIC (Lenzites betulinus): 12.5 mg/L (≈ 76.1 µM)
mortality (Coptotermes formosanus [20]): 100%
mortality (Coptotermes formosanus [21]): 100%
